Assay results published in paper PMC5218480 (PLoS ONE, 2017).

Test system: MV-4-11 cells
Test: Gene expression microarray analysis (Affymetrix PrimeView) and GSEA
Type: cell-based, human
Parameters: RFU PODN (11730768_x_at) / Fold change /veh PODN (11730768_x_at) / RFU LINC00158 (11744669_a_at) / Fold change /veh LINC00158 (11744669_a_at) / RFU DUSP10 (11751237_a_at) / Fold change /veh DUSP10 (11751237_a_at) / RFU ID3 (11757404_x_at) / Fold change /veh ID3 (11757404_x_at) / RFU PLEKHG5 (11737974_s_at) / Fold change /veh PLEKHG5 (11737974_s_at) / RFU LRRC4B (11730491_at) / Fold change /veh LRRC4B (11730491_at) / RFU GIMAP4 (11747438_a_at) / Fold change /veh GIMAP4 (11747438_a_at) / RFU KRT8 (11758183_x_at) / Fold change /veh KRT8 (11758183_x_at) / RFU CNN1 (11734310_a_at) / Fold change /veh CNN1 (11734310_a_at) / RFU VPS37D (11726825_at) / Fold change /veh VPS37D (11726825_at) / RFU C10orf10 (11716522_x_at) / Fold change /veh C10orf10 (11716522_x_at) / RFU KIR2DL2 /// KIR2DL4 /// KIR2DL5A /// KIR2DL5B /// KIR2DS1 /// KIR2DS2 /// KIR2DS3 /// KIR2DS4 /// KIR3DL3 /// KIR3DL3 /// KIR3DS1 (11738374_at) / Fold change /veh KIR2DL2 /// KIR2DL4 /// KIR2DL5A /// KIR2DL5B /// KIR2DS1 /// KIR2DS2 /// KIR2DS3 /// KIR2DS4 /// KIR3DL3 /// KIR3DL3 /// KIR3DS1 (11738374_at) / RFU C1QL1 (11718748_at) / Fold change /veh C1QL1 (11718748_at) / RFU TMPRSS4 (11747572_a_at) / Fold change /veh TMPRSS4 (11747572_a_at) / RFU HAMP (11756126_x_at) / Fold change /veh HAMP (11756126_x_at) / RFU RNFT2 (11725882_a_at) / Fold change /veh RNFT2 (11725882_a_at) / RFU NR4A2 (11747474_a_at) / Fold change /veh NR4A2 (11747474_a_at) / RFU ABCC12 (11746883_a_at) / Fold change /veh ABCC12 (11746883_a_at) / RFU TMEM136 (11760407_x_at) / Fold change /veh TMEM136 (11760407_x_at) / RFU CLDN22 /// WWC2 (11732394_at) / Fold change /veh CLDN22 /// WWC2 (11732394_at) / RFU HLA-DPB1 (11760878_x_at) / Fold change /veh HLA-DPB1 (11760878_x_at) / RFU SPINT1 (11716480_a_at) / Fold change /veh SPINT1 (11716480_a_at) / RFU GAP43 (11754022_s_at) / Fold change /veh GAP43 (11754022_s_at) / RFU A4GNT (11735810_at) / Fold change /veh A4GNT (11735810_at) / RFU PRB3 (11715151_x_at) / Fold change /veh PRB3 (11715151_x_at) / RFU TUBB4B (11761932_at) / Fold change /veh TUBB4B (11761932_at) / RFU CAPN14 (11732068_a_at) / Fold change /veh CAPN14 (11732068_a_at) / RFU TMCC2 (11721928_a_at) / Fold change /veh TMCC2 (11721928_a_at) / RFU IRGQ (11745062_a_at) / Fold change /veh IRGQ (11745062_a_at) / RFU FAM174B (11720279_a_at) / Fold change /veh FAM174B (11720279_a_at) / RFU TMPRSS4 (11748680_a_at) / Fold change /veh TMPRSS4 (11748680_a_at) / RFU FAM212B (11763350_a_at) / Fold change /veh FAM212B (11763350_a_at) / RFU PLEKHG5 (11743358_a_at) / Fold change /veh PLEKHG5 (11743358_a_at) / RFU ZSCAN30 (11745921_a_at) / Fold change /veh ZSCAN30 (11745921_a_at) / RFU CMKLR1 (11741424_a_at) / Fold change /veh CMKLR1 (11741424_a_at) / RFU LOC101060620 /// MAPK8IP1 (11723275_at) / Fold change /veh LOC101060620 /// MAPK8IP1 (11723275_at) / RFU SPTSSB (11747773_x_at) / Fold change /veh SPTSSB (11747773_x_at) / RFU PRSS12 (11739890_at) / Fold change /veh PRSS12 (11739890_at) / RFU BIN1 (11741810_x_at) / Fold change /veh BIN1 (11741810_x_at) / RFU WNT11 (11732464_a_at) / Fold change /veh WNT11 (11732464_a_at) / RFU C10orf10 (11716521_a_at) / Fold change /veh C10orf10 (11716521_a_at) / RFU C5orf56 (11738089_at) / Fold change /veh C5orf56 (11738089_at) / RFU CYB561 (11721691_x_at) / Fold change /veh CYB561 (11721691_x_at) / RFU ANKRD19P (11752326_a_at) / Fold change /veh ANKRD19P (11752326_a_at) / RFU OR2T12 /// OR2T33 /// OR2T8 (11738714_s_at) / Fold change /veh OR2T12 /// OR2T33 /// OR2T8 (11738714_s_at) / RFU VCAN (11748164_a_at) / Fold change /veh VCAN (11748164_a_at) / RFU JSRP1 (11732532_at) / Fold change /veh JSRP1 (11732532_at) / RFU KRTAP10-11 (11738290_x_at) / Fold change /veh KRTAP10-11 (11738290_x_at) / RFU MYO3A (11730013_a_at) / Fold change /veh MYO3A (11730013_a_at) / RFU EBF3 (11725865_a_at) / Fold change /veh EBF3 (11725865_a_at) / RFU CAMK2N1 (11719241_x_at) / Fold change /veh CAMK2N1 (11719241_x_at) / RFU C5orf56 (11738088_a_at) / Fold change /veh C5orf56 (11738088_a_at) / RFU OLFML3 (11715873_a_at) / Fold change /veh OLFML3 (11715873_a_at) / RFU LOC100653217 /// NTM (11731650_a_at) / Fold change /veh LOC100653217 /// NTM (11731650_a_at) / RFU MAPK11 (11762145_a_at) / Fold change /veh MAPK11 (11762145_a_at) / RFU FIZ1 (11724087_x_at) / Fold change /veh FIZ1 (11724087_x_at) / RFU OASL (11726364_x_at) / Fold change /veh OASL (11726364_x_at) / RFU SOX15 (11748057_x_at) / Fold change /veh SOX15 (11748057_x_at) / RFU CD79A (11719716_a_at) / Fold change /veh CD79A (11719716_a_at) / RFU HIST1H1D (11736915_at) / Fold change /veh HIST1H1D (11736915_at) / RFU CASKIN2 (11723855_a_at) / Fold change /veh CASKIN2 (11723855_a_at) / RFU LOC730098 (11760151_x_at) / Fold change /veh LOC730098 (11760151_x_at) / RFU OR4N2 (11742367_at) / Fold change /veh OR4N2 (11742367_at) / RFU PRRT2 (11749266_a_at) / Fold change /veh PRRT2 (11749266_a_at) / RFU SNX32 (11753110_a_at) / Fold change /veh SNX32 (11753110_a_at) / RFU CDHR5 (11726645_a_at) / Fold change /veh CDHR5 (11726645_a_at) / RFU RCAN1 (11760418_a_at) / Fold change /veh RCAN1 (11760418_a_at) / RFU FAM167A (11723789_a_at) / Fold change /veh FAM167A (11723789_a_at) / RFU FAM26E (11764081_at) / Fold change /veh FAM26E (11764081_at) / RFU ISYNA1 (11749810_s_at) / Fold change /veh ISYNA1 (11749810_s_at) / RFU ACY1 (11761880_at) / Fold change /veh ACY1 (11761880_at) / RFU 11764098_at / Fold change /veh 11764098_at / RFU SAMD14 (11745864_x_at) / Fold change /veh SAMD14 (11745864_x_at) / RFU NPB (11741838_a_at) / Fold change /veh NPB (11741838_a_at) / RFU TMPRSS6 (11731388_a_at) / Fold change /veh TMPRSS6 (11731388_a_at) / RFU KRTAP10-2 (11738614_at) / Fold change /veh KRTAP10-2 (11738614_at) / RFU ARHGAP8 /// PRR5-ARHGAP8 (11727945_x_at) / Fold change /veh ARHGAP8 /// PRR5-ARHGAP8 (11727945_x_at) / RFU KRTAP5-7 /// NADSYN1 (11734609_at) / Fold change /veh KRTAP5-7 /// NADSYN1 (11734609_at) / RFU RASL12 (11751679_a_at) / Fold change /veh RASL12 (11751679_a_at) / RFU CDKN2B (11736163_a_at) / Fold change /veh CDKN2B (11736163_a_at) / RFU PRF1 (11729649_at) / Fold change /veh PRF1 (11729649_at) / RFU, ZNF638 /// ZNF638-IT1 / Fold change vs veh, ZNF638 /// ZNF638-IT1 / RFU, PANK3 / Fold change vs veh, PANK3 / RFU, SH3YL1 / Fold change vs veh, SH3YL1 / RFU, ZEB2 / Fold change vs veh, ZEB2 / RFU, NRIP1 / Fold change vs veh, NRIP1 / RFU, PTTG1IP / Fold change vs veh, PTTG1IP / RFU, CAPN2 / Fold change vs veh, CAPN2 / RFU, MED14 / Fold change vs veh, MED14 / RFU, SNORA58 / Fold change vs veh, SNORA58 / RFU, C1orf63 / Fold change vs veh, C1orf63 / RFU, LRRFIP1 / Fold change vs veh, LRRFIP1 / RFU, NDUFAF7 / Fold change vs veh, NDUFAF7 / RFU, SLC12A2 / Fold change vs veh, SLC12A2 / RFU, IBTK / Fold change vs veh, IBTK / RFU, ESF1 / Fold change vs veh, ESF1 / Fold change vs veh, TMEM50B / RFU, TAOK1 / Fold change vs veh, TAOK1 / RFU, ACBD3 / Fold change vs veh, ACBD3 / RFU, TMA16 / Fold change vs veh, TMA16 / RFU, RWDD3 / Fold change vs veh, RWDD3 / RFU, BCAT1 / Fold change vs veh, BCAT1 / RFU, EDEM3 / Fold change vs veh, EDEM3 / RFU, TMEM33 / Fold change vs veh, TMEM33 / RFU, WDR75 / Fold change vs veh, WDR75 / RFU, AHCTF1 / Fold change vs veh, AHCTF1 / RFU, TFRC / Fold change vs veh, TFRC / RFU, ZDHHC17 / Fold change vs veh, ZDHHC17 / RFU, NOM1 / Fold change vs veh, NOM1 / RFU, ARL8B / Fold change vs veh, ARL8B / RFU, ZBTB11 / Fold change vs veh, ZBTB11 / RFU, TAMM41 / Fold change vs veh, TAMM41 / RFU, KIAA1704 /// LOC100996395 / Fold change vs veh, KIAA1704 /// LOC100996395 / RFU, ING1 / Fold change vs veh, ING1 / RFU, TRMT61B / Fold change vs veh, TRMT61B / RFU, FUBP3 / Fold change vs veh, FUBP3 / RFU, TP53 / Fold change vs veh, TP53 / RFU, TNKS2 / Fold change vs veh, TNKS2 / RFU, ZFP14 / Fold change vs veh, ZFP14 / RFU, ACTR2 / Fold change vs veh, ACTR2 / RFU, PPP3R1 / Fold change vs veh, PPP3R1 / RFU, PIK3R1 / Fold change vs veh, PIK3R1 / RFU, HNRNPA1 / Fold change vs veh, HNRNPA1 / RFU, RNF170 / Fold change vs veh, RNF170 / RFU, ZNF28 / Fold change vs veh, ZNF28 / RFU, RNGTT / Fold change vs veh, RNGTT / RFU, OGT / Fold change vs veh, OGT / RFU, BRD1 / Fold change vs veh, BRD1 / RFU, MARS / Fold change vs veh, MARS / RFU, ZNF655 / Fold change vs veh, ZNF655 / RFU, FAHD1 / Fold change vs veh, FAHD1 / RFU, BDP1 / Fold change vs veh, BDP1 / RFU, LRRCC1 / Fold change vs veh, LRRCC1 / RFU, ARID1A / Fold change vs veh, ARID1A / RFU, ZNF146 / Fold change vs veh, ZNF146 / RFU, ZNF330 / Fold change vs veh, ZNF330 / RFU, GPN3 / Fold change vs veh, GPN3 / RFU, C9orf123 / Fold change vs veh, C9orf123 / RFU, N4BP2L2 / Fold change vs veh, N4BP2L2 / RFU, ARFIP1 / Fold change vs veh, ARFIP1 / RFU, FAM179B / Fold change vs veh, FAM179B / RFU, BCL10 / Fold change vs veh, BCL10 / RFU, UHRF1BP1L / Fold change vs veh, UHRF1BP1L / RFU, BET1 / Fold change vs veh, BET1 / RFU, CNOT2 / Fold change vs veh, CNOT2 / RFU, ZNF268 / Fold change vs veh, ZNF268 / Fold change vs veh, ZNF507 / RFU, DGCR2 / Fold change vs veh, DGCR2 / RFU, WDSUB1 / Fold change vs veh, WDSUB1 / Fold change vs veh, HSP90B1 /// MIR3652 / RFU, ADSS / Fold change vs veh, ADSS / RFU, GK / Fold change vs veh, GK / RFU, ZNF148 / Fold change vs veh, ZNF148 / RFU, TAF9 / Fold change vs veh, TAF9 / RFU, SLC1A5 / Fold change vs veh, SLC1A5 / RFU, SLMO2 / Fold change vs veh, SLMO2 / RFU, ABCC4 / Fold change vs veh, ABCC4 / RFU, LOC101060439 /// RAP1B / Fold change vs veh, LOC101060439 /// RAP1B / RFU, RFX7 / Fold change vs veh, RFX7 / RFU, GTPBP10 / Fold change vs veh, GTPBP10 / RFU, CNEP1R1 / Fold change vs veh, CNEP1R1 / RFU, BIVM-ERCC5 /// ERCC5 / Fold change vs veh, BIVM-ERCC5 /// ERCC5 / RFU, ILF3 / Fold change vs veh, ILF3 / RFU 11762660_at / Fold change /veh 11762660_at / RFU VCAN (11757783_s_at) / Fold change /veh VCAN (11757783_s_at) / RFU DDX43 (11728927_at) / Fold change /veh DDX43 (11728927_at) / RFU KRT8 (11758188_x_at) / Fold change /veh KRT8 (11758188_x_at) / RFU NKD1 (11759106_at) / Fold change /veh NKD1 (11759106_at) / RFU SRD5A1 (11742802_a_at) / Fold change /veh SRD5A1 (11742802_a_at) / RFU TPSAB1 /// TPSB2 (11721975_s_at) / Fold change /veh TPSAB1 /// TPSB2 (11721975_s_at) / RFU GSTM3 (11746129_a_at) / Fold change /veh GSTM3 (11746129_a_at) / RFU IL23R (11737362_x_at) / Fold change /veh IL23R (11737362_x_at) / RFU TMEM51 (11727254_a_at) / Fold change /veh TMEM51 (11727254_a_at) / RFU PIWIL2 (11732686_x_at) / Fold change /veh PIWIL2 (11732686_x_at) / RFU ORM1 (11744905_x_at) / Fold change /veh ORM1 (11744905_x_at) / RFU CCDC152 (11743942_at) / Fold change /veh CCDC152 (11743942_at) / RFU ECM1 (11717891_a_at) / Fold change /veh ECM1 (11717891_a_at) / RFU IL23R (11748794_a_at) / Fold change /veh IL23R (11748794_a_at) / RFU TNFAIP8L3 (11732012_x_at) / Fold change /veh TNFAIP8L3 (11732012_x_at) / RFU MBOAT4 (11741988_at) / Fold change /veh MBOAT4 (11741988_at) / RFU 11764193_at / Fold change /veh 11764193_at / RFU TMEM53 (11763286_at) / Fold change /veh TMEM53 (11763286_at) / RFU MAGEB2 (11727129_at) / Fold change /veh MAGEB2 (11727129_at) / RFU TMEM200A (11744735_a_at) / Fold change /veh TMEM200A (11744735_a_at) / RFU CCDC152 (11751479_a_at) / Fold change /veh CCDC152 (11751479_a_at) / RFU FAM211A (11726209_a_at) / Fold change /veh FAM211A (11726209_a_at) / RFU RGS16 (11746705_a_at) / Fold change /veh RGS16 (11746705_a_at) / RFU VCAN (11755009_s_at) / Fold change /veh VCAN (11755009_s_at) / RFU RHOB (11743442_s_at) / Fold change /veh RHOB (11743442_s_at) / RFU RGS16 (11720943_a_at) / Fold change /veh RGS16 (11720943_a_at) / RFU RGS16 (11720944_at) / Fold change /veh RGS16 (11720944_at) / RFU, VPS4B / Fold change vs veh, VPS4B / RFU, CREB1 / Fold change vs veh, CREB1 / RFU, DNAJC13 / Fold change vs veh, DNAJC13 / RFU, GNAQ / Fold change vs veh, GNAQ / RFU, CDK5R1 / Fold change vs veh, CDK5R1 / RFU, ZRANB3 / Fold change vs veh, ZRANB3 / RFU, CUL4A / Fold change vs veh, CUL4A / RFU, CCNY / Fold change vs veh, CCNY / RFU, UFL1 / Fold change vs veh, UFL1 / RFU, COG3 / Fold change vs veh, COG3 / RFU, DIAPH2 / Fold change vs veh, DIAPH2 / RFU, SKA2 / Fold change vs veh, SKA2 / RFU, AFF3 / Fold change vs veh, AFF3 / RFU, LMF1 / Fold change vs veh, LMF1 / RFU, IPO11 / Fold change vs veh, IPO11 / RFU, DFFB / Fold change vs veh, DFFB / RFU, FOXP1 / Fold change vs veh, FOXP1 / RFU, CARD8 / Fold change vs veh, CARD8 / RFU, STRN3 / Fold change vs veh, STRN3 / RFU, ADK / Fold change vs veh, ADK / RFU, RASSF2 / Fold change vs veh, RASSF2 / RFU, WIPF1 / Fold change vs veh, WIPF1 / RFU, LARP1B / Fold change vs veh, LARP1B / RFU, RASA1 / Fold change vs veh, RASA1 / RFU, RB1 / Fold change vs veh, RB1 / RFU, PPFIA1 / Fold change vs veh, PPFIA1 / RFU, MAT2A / Fold change vs veh, MAT2A / RFU, CCT5 / Fold change vs veh, CCT5 / RFU, WDR92 / Fold change vs veh, WDR92 / RFU, CUX1 / Fold change vs veh, CUX1 / RFU, TTC7A / Fold change vs veh, TTC7A / RFU, TMEM135 / Fold change vs veh, TMEM135 / RFU, DEPTOR / Fold change vs veh, DEPTOR / RFU, CPM / Fold change vs veh, CPM / RFU, DNAJB6 / Fold change vs veh, DNAJB6 / RFU, CACNA2D3 / Fold change vs veh, CACNA2D3 / RFU, DTX4 / Fold change vs veh, DTX4 / RFU, TFCP2 / Fold change vs veh, TFCP2 / RFU, GMCL1 /// GMCL1P1 / Fold change vs veh, GMCL1 /// GMCL1P1 / RFU, AEBP2 / Fold change vs veh, AEBP2 / RFU, SNHG1 /// SNORD22 /// SNORD25 /// SNORD26 /// SNORD27 /// SNORD28 /// SNORD29 /// SNORD31 / Fold change vs veh, SNHG1 /// SNORD22 /// SNORD25 /// SNORD26 /// SNORD27 /// SNORD28 /// SNORD29 /// SNORD31 / Fold change (Aza/veh), C12orf56 (ProbeSet 11735607_a_at) / Fold change (ACY-1035/veh), C12orf56 (ProbeSet 11735607_a_at) / Fold change (Aza/veh), FGFR1OP (ProbeSet 11751329_s_at) / Fold change (ACY-1035/veh), FGFR1OP (ProbeSet 11751329_s_at) / Fold change (Aza/veh), VPS36 (ProbeSet 11739960_a_at) / Fold change (ACY-1035/veh), VPS36 (ProbeSet 11739960_a_at) / RFU SYPL1 (11715823_x_at) / Fold change /veh SYPL1 (11715823_x_at) / RFU IGFBP7 (11715501_s_at) / Fold change /veh IGFBP7 (11715501_s_at) / RFU REEP3 (11722064_at) / Fold change /veh REEP3 (11722064_at) / RFU IGLL1 (11728026_x_at) / Fold change /veh IGLL1 (11728026_x_at): dose or concentration left out as unconfirmed
Settings: MV-4-11 cells, 48 hours

## Nc1ncn([C@@H]2O[C@H](CO)[C@@H](O)[C@H]2O)c(=O)n1 [azacitidine]
  Fold change /veh CNN1 (11734310_a_at): 1.15
